Source: patent publication US20130266676A1, “TERMINALIA CHEBULA COMPOSITIONS AND METHOD OF EXTRACTING SAME” (NATREON, INC., priority 2012, published 2013)

Key:
[1] = system: HSV-1; conditions: noncytotoxic doses, A549 human lung cells; cited from earlier work
[2] = system: stimulated human peripheral blood lymphocytes; conditions: concentrations ten times above maximal effective concentration; cited from earlier work
[3] = biological target: HIV rgp120 to CD4 (UniProt P01730+P04578); conditions: cited from earlier work
[4] = system: LPS-stimulated RAW 264.7; conditions: cited from earlier work
[5] = biological target: T1, COX-2 (Homo sapiens, UniProt P35354); conditions: cited from earlier work
T1 sequence (P35354 18-604): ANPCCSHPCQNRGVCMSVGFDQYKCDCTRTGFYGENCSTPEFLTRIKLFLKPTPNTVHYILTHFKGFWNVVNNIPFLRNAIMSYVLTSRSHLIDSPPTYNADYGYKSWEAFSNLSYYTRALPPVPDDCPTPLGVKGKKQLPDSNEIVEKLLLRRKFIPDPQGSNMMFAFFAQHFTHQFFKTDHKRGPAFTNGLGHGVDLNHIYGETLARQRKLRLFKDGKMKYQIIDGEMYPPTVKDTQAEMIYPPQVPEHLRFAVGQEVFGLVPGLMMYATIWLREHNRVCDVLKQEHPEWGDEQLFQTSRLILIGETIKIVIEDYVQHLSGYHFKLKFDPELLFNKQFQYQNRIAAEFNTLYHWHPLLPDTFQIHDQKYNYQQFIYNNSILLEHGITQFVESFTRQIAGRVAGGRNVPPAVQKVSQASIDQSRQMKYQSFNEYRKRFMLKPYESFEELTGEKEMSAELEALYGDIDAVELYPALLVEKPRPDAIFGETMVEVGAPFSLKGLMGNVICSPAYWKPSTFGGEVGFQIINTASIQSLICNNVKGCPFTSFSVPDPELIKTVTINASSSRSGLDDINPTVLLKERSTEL

[6] = system: PRMI-7951 melanoma cells; conditions: cited from earlier work
[7] = system: HCT-15, COLO-205, MDA-MB-231, DU-145 and K562 cell lines; conditions: cited from earlier work
[8] = system: melanin; conditions: compared with ascorbic acid, butylated hydroxyl toluene, alpha-tocopherol, arbutin and kojic acid; cited from earlier work
[9] = system: collagen-induced arthritis; conditions: mice; cited from earlier work
[10] = system: Smad pathway; conditions: through inhibition of the Smad pathway; cited from earlier work
[11] = compared with ascorbic acid, butylated hydroxyl toluene, alpha-tocopherol, arbutin and kojic acid; cited from earlier work
[12] = system: HepG2 cells; conditions: cited from earlier work
[13] = Thermal stability during aqueous extraction at 80±5° C. (HPLC); type: physicochemical; conditions: different time points
Method: In another experiment, fruit pericarp portions of T. Chebula (50 g) were pulverized and the resulting powder was extracted with distilled water (300 ml) for 12 hours, with a continuous stirring (400 RPM), separately at different temperatures 30±5° C., 40±5° C., 60±5° C. and 80±5° C. using a pressure reactor. Aliquots of the samples were withdrawn at different time intervals during extraction, spray dried and analyzed for bioactives (Chebulagic acid, Chebulinic acid and other LMwHTs) by HPLC (as discussed above). The results are incorporated in Tables 3-6. As used herein, “0 hour” extraction refers to “instant extraction,” which for the purpose of this disclosure means distilled water was added to the pulverized powder on a thermostatic water bath, stirred for 5 minutes and an aliquot of the sample withdrawn and analyzed.

[14] = system: 5-LOX; conditions: cited from earlier work
[15] = system: COX-1; conditions: cited from earlier work
[16] = system: MCF-7, S115, HOS-1, PC-3 and PNT1A cell lines; conditions: cited from earlier work
[17] = system: K562 cells; conditions: concentration-dependent; cited from earlier work
[18] = system: human cervical carcinoma HeLa cells; conditions: cited from earlier work
[19] = rats; cited from earlier work
[20] = system: cytotoxic T-lymphocyte (CTL)-mediated cytotoxicity; conditions: cited from earlier work

O=C1O[C@H]2[C@@H]3OC(=O)c4cc(O)c(O)c(O)c4-c4c(O)c(O)c5oc(=O)c6c(c(O)c(O)c7oc(=O)c4c5c76)-c4c(cc(O)c(O)c4O)C(=O)OC[C@H]3OC(O)[C@@H]2OC(=O)c2cc(O)c(O)c(O)c2-c2c1cc(O)c(O)c2O (mixture of isomers) [punicalagin]
inhibition of HSV-1 entry [1]: inhibit HSV-1 entry

O=C1OC[C@H]2OC(O)[C@H](O)[C@@H](O)[C@@H]2OC(=O)c2cc(O)c(O)c(O)c2-c2c(O)c(O)c3oc(=O)c4c(c(O)c(O)c5oc(=O)c2c3c54)-c2c1cc(O)c(O)c2O (mixture of isomers) [punicalin]
toxicity to lymphocytes [2]: not toxic
blocking of binding of HIV rgp120 to CD4 [3]: block the binding

O=C(O)CC1C(=O)OC2C3COC(=O)c4cc(O)c(O)c(O)c4-c4c(cc(O)c(O)c4O)C(=O)OC2C(OC(=O)c2cc(O)c(O)c4c2C1C(O)C(=O)O4)C(OC(=O)c1cc(O)c(O)c(O)c1)O3 [Chebulagic acid, beta-1-O-galloyl-2,4-chebuloyl-3,6-(R)-hexahydroxydiphenoyl-D-glucose]
anti-inflammatory effects [4]: potent anti-inflammatory effects
IC50 [5]: 920 ± 11 nM
cytotoxicity [6]: cytotoxic properties
anti-proliferative activity [7]: anti-proliferative activity
melanin inhibitory activity versus reference agents [8]: stronger
onset and progression of collagen-induced arthritis [9]: suppress the onset and progression
antifibrotic activity [10]: antifibrotic activity
DPPH radical scavenging activity versus reference antioxidants [11]: stronger
enhancement of cytotoxicity of doxorubicin ([12]; HepG2 cells): 20 fold
interaction with doxorubicin by Combination Index (CI), cell growth inhibition [12]: strong synergistic interaction
inhibition of HSV-1 entry [1]: inhibit HSV-1 entry
thermal stability [13]: thermolabile
IC50 [14]: 2100 ± 57 nM
IC50 [15]: 15 ± 0.288 µM

O=C(O)CC1C(=O)OC2C(COC(=O)c3cc(O)c(O)c(O)c3)OC(OC(=O)c3cc(O)c(O)c(O)c3)C(OC(=O)c3cc(O)c(O)c4c3C1C(O)C(=O)O4)C2OC(=O)c1cc(O)c(O)c(O)c1 [Chebulinic acid, 1,3,6-tri-O-galloyl-2,4-chebuloyl-beta-D-glucose]
growth inhibition [16]: growth inhibitory
hemoglobin synthesis [17]: inhibited the hemoglobin synthesis
anti-tumor properties [18]: anti-tumor properties
melanin inhibitory activity versus reference agents [8]: stronger
blood pressure effect [19]: blood pressure lowering effect
toxicity to lymphocytes [2]: not toxic
blocking of binding of HIV rgp120 to CD4 [3]: block the binding
antifibrotic activity [10]: antifibrotic activity
DPPH radical scavenging activity versus reference antioxidants [11]: stronger
thermal stability [13]: thermolabile

O=C(O[C@H]1[C@@H]2OC(=O)c3cc(O)c(O)c(O)c3-c3c(cc(O)c(O)c3O)C(=O)OC[C@H]2OC(O)[C@@H]1OC(=O)c1cc(O)c(O)c(O)c1)c1cc(O)c(O)c(O)c1 (stereo partly shown) [Tellimagrandin I]
anti-tumor properties [18]: anti-tumor properties

O=C(O)C[C@H](C(=O)O)[C@H]1c2c(cc(O)c(O)c2O)C(=O)O[C@@H]1C(=O)O [chebulic acid]
blocking of CTL-mediated cytotoxicity [20]: blocked

O=c1oc2c(O)c(O)cc3c(=O)oc4c(O)c(O)cc1c4c23 [ellagic acid]
growth inhibition [16]: growth inhibitory

O=C(OC[C@H]1O[C@@H](OC(=O)c2cc(O)c(O)c(OC(=O)c3cc(O)c(O)c(O)c3)c2)[C@H](OC(=O)c2cc(O)c(O)c(OC(=O)c3cc(O)c(O)c(O)c3)c2)[C@@H](OC(=O)c2cc(O)c(O)c(OC(=O)c3cc(O)c(O)c(O)c3)c2)[C@@H]1OC(=O)c1cc(O)c(O)c(OC(=O)c2cc(O)c(O)c(O)c2)c1)c1cc(O)c(O)c(OC(=O)c2cc(O)c(O)c(O)c2)c1 [tannic acid]
growth inhibition [16]: growth inhibitory
